From patent publication US10882826B2, “Quinolinone or quinazolinone comprising antibiofilm compositions, compounds and methods and uses relating thereto” (University College Cork—National University of Ireland, priority 2015, dated 2021)

How the values were obtained:
[1] = system: IB3 lung epithelial cells; assay: LDH release cytotoxicity, IB3-1 cells; assay type: cell-based; conditions: 100 μM, 16 hr, percentage of 0.1% Triton (100% cytotoxicity), MeOH 3.844
Procedure: (§1) Lactate dehydrogenase (LDH) release from IB3 lung epithelial cells was assayed as a measure of cytotoxicity using an LDH colorimetric kit (Roche) according to manufacturers' instructions. Briefly, IB3-1 cells were seeded onto 96 well plates and treated with methanol (control) and test compounds (100 μM). Following 16 hr incubation at 37° C. and 5% CO2, supernatants were removed and added to catalyst reaction mixture in a fresh plate and further incubated at 37° C. and 5% CO2 for 30 mins to allow for colour development. After this period, the plate was analysed on an ELISA plate reader at OD490 nm. Cytotoxicity was expressed as a percentage of cells treated with 0.1% (v/v) Triton (100% cytotoxicity).

[2] = system: P. aeruginosa PAO1 pqsA-pqsA-lacZ strain; assay: Phenazine extraction (phenazine production); assay type: cell-based; conditions: for Phenazine, Mean: PAO1 pqsA-pqsA-lacZ strain, test compounds 10 μM, 24 hr, methanol control 0.080; for Normalised Phenazine, Mean: normalized to the methanol control (=1), n>=2
Procedure: (§2) P. aeruginosa strains, PAO1 and pqsA mutant, containing the chromosomally inserted pqsA-lacZ promoter fusion on plasmid pUC18-mini-Tn7, were sub-cultured from glycerol stocks onto LB agar plates, supplemented with Carbenicillin (200 μg/ml) and X-gal (40 μg/ml), and incubated at 37° C. overnight. Single colonies were inoculated into LB broth (20 ml), supplemented with Carbenicillin (200 μg/ml), and incubated at 37° C., shaking at 180 rpm overnight. For subsequent experiments, the OD600 nm was recorded and a starting OD600 nm of 0.02 was inoculated into fresh LB broth, supplemented with Carbenicillin (200 μg/ml) and incubated at 37° C., shaking at 180 rpm.
(§3) P. aeruginosa strains were cultured as described above for 24 hr, with the addition of test compounds (10 μM). Cultures were centrifuged at 4000 rpm for 10 minutes and the cell free supernatant (5 ml) removed. Chloroform (3 ml) was added, and mixed by vortex. After centrifugation at 4000 rpm for 5 mins, the lower aqueous phase was transferred to 0.2 M HCl (2 ml). Samples were mixed by vortex and centrifuged at 4000 rpm for 5 mins to separate the phases. An aliquot of the top phase (1 ml) was removed and spectrophotmetrically analysed at OD570 nm. Phenazine production was calculated using the following formula: OD570 nm×2×17.072 and the units expressed in μg/ml.
(§4) The phenazine production levels and Miller units in the PAO1 pqsA-pqsA-lacZ strain are detailed in table 5.
(§5) The virulence of compounds B2, C13 and C15 towards P. aeruginosa was assessed using an analogous method.

mammalian cells = assay: Cytotoxicity towards mammalian cells (summary statement); assay type: cell-based
Procedure: as §1, with “cytotoxicity). The results are detailed in table 3:” for “cytotoxicity).”
The above experiments were repeated, testing some compounds against further cell lines (A549, DU145 and HeLa).

Pseudomonus aeruginosa = assay: Virulence of Pseudomonas aeruginosa (summary statement); assay type: cell-based; conditions: unlike HHQ and PQS
Procedure: The virulence of compounds B1, B2, C2, C3, C4, C5, C6, C8 and C11 towards P. aeruginosa was assessed using the following method:
as §3, with “μg/ml. […]” for “μg/ml.”

[3] = system: pqsA-lacZ promoter fusion; assay: Promoter fusion based expression analysis (pqsA-lacZ, Miller units); assay type: cell-based, P. aeruginosa; conditions: for Miller Units, Mean: PAO1 pqsA-pqsA-lacZ strain, 100 μM, overnight, methanol control 12287; for Normalised Miller Units, Mean: normalized to the methanol control (=1), n>=2
Procedure: as §2
Promoter fusion analyses were performed in a 96-well format. Briefly, overnight cultures of wild-type PAO1 pqsA-lacZ (pLP0996) and mutant strain PAO1 pqsA^− pqsA-LacZ were diluted to OD600 nm=0.02 in LB. Test compounds at 100 μM final concentration were added, mixed, aliquoted into 96 well plates and incubated overnight at 37° C. with shaking. The next day, OD600 nm values were recorded in a plate reader. Aliquots of cells (0.02 ml) were permeabilised [100 mM dibasic sodium phosphate (Na2HPO4), 20 mM KCl, 2 mM MgSO4, 0.8 mg/mL CTAB (hexadecyltrimethylammonium bromide), 0.4 mg/mL sodium deoxycholate, 5.4 μL/mL beta-mercaptoethanol] and added to substrate solution [60 mM Na2HPO4, 40 mM NaH2PO4, 1 mg/mL o-nitrophenyl-β-D-Galactoside (ONPG), 2.7 μL/mL β-mercaptoethanol]. The kinetics of colour development was monitored and the reactions were stopped using 1M NaCO3. OD420 nm were recorded as above. Miller units were calculated using the following equation; 1000×[OD420 nm/(OD600 nm)×0.02 ml×reaction time (mins)].
as §4, §5

[4] = system: C. albicans strain SC5314 biofilm; assay: XTT metabolic assay of C. albicans biofilm; assay type: cell-based, Candida albicans; conditions: for Absorbance at 492 nm, Mean (XTT): C. albicans biofilm, test compound 100 μM, 24 hr, MeOH control 0.647, untreated 0.851
Procedure: C. albicans strain SC5314 was sub-cultured from 15% (v/v) glycerol stocks at −80° C. onto Yeast Peptone Dextrose (YPD) medium [1% (w/v) yeast extract, 2% (w/v) peptone and 2% (w/v) dextrose] and incubated at 30° C. overnight.
The test compounds in desiccated form were re-suspended in Methanol to create a 10 mM stock. […]
The ability of some of the compounds detailed in example 1 to disrupt Candida albicans was tested using Confocal Scanning Laser Microscopy and an XTT Metabolic Assay. The XTT assay is a commonly used quantitative method assessing Candida biofilm mass and growth often in response to novel drug therapies.
C. albicans biofilm formation was carried out in 96 well plates by a method of the prior art. Briefly, C. albicans was inoculated into Yeast Nitrogen Base [10% (w/v)] and glucose/maltose [10% (w/v)] and incubated overnight at 30° C. Seeding densities for all subsequent experiments (N=3) were OD600=0.05. Cells were grown in Yeast Nitrogen Base supplemented with 1 M Phosphate buffer and acetyl-D-glucosamine (YNB-NP) along with appropriate volumes of test compound to provide the desired concentration. Cells were cultured in 96 well plates for 1 hr at 37° C. to facilitate yeast attachment. After this incubation, the supernatants were aspirated, the wells washed twice with YNB-NP media, and fresh media with the same concentration of test compound added to the appropriate wells. The plate was incubated for 24 hr at 37° C. The next day, the cultures were aspirated and the wells washed once with YNB-NP media.
C. albicans biofilm quantification was carried out in 96 well plates using a semi-quantitative Tetrazolium salt, 2,3-bis-(2-methoxy-4-nitro-5-sulfophenyl)-2H tetrazolium-5-carboxanilide inner salt (XTT) reduction assay (Hawser, Tunney et al, Antimicrob Agents Chemother. 2004 May; 48(5):1879-81). XTT (0.01 g) was dissolved in sterile water (20 ml) and filter sterilized. 10 μl of Menadione dissolved in Acetone was added to the XTT solution, just before use. The XTT-Menadione Solution (100 μl) was added to each well. The plate was incubated in the dark at 37° C. for up to 2 hr to allow for colour development. The OD492 nm was recorded for each well. Experiments were repeated at least three times, with at least eight technical replicates.
Experiments were first carried out using the test compound at concentration of 100 μM.

[5] = system: A. fumigatus Af293 biofilm; assay: A. fumigatus biofilm assay (crystal violet); assay type: cell-based, Aspergillus fumigatus; conditions: for Relative absorbance at 595 nm compared to methanol control, Mean: A. fumigatus Af293 biofilm, 100 μM, 24 hrs, crystal violet; for effectiveness against fungal biofilms formed by Aspergillus fumigatus (in words): summary statement
Procedure: A. fumigatus Af293 was routinely grown on Sabouraud dextrose agar (SDA) in 100 ml cell culture flasks at 37° C. for 3-4 days until a lawn of fungal growth was observed.
(§6) A. fumigatus Af293 was grown on SDA in 100 ml cell culture flasks at 37° C. for 3-4 days. Conidia were harvested by flooding the surface of the agar plates with 5 ml PBS (Oxoid) containing 0.025% (v/v) Tween 20 and gently moving the liquid over the surface of the fungal lawn. The conidial suspension was transferred into a 25 ml sterile container and conidia were counted using a Neubauer haemocytometer and light microscope. Conidia were adjusted to the required concentration in RPMI 1640 (Sigma) buffered to pH 7.0 with 0.165 M MOPS immediately prior to biofilm formation analysis.
(§7) To assess biofilm formation, counted A. fumigatus spores (1×10^5) in MOPS buffered RPMI 1640 were inoculated into 24- and 96-well plates and grown overnight in the presence of 100 μM HHQ, PQS and the test compounds. After 24 hrs, the media was removed and the biofilm washed twice with distilled water after which 0.1% crystal violet (CV) was added to each well and allowed to stand for 1 hr at room temperature. The crystal violet was removed and all wells washed in a water bath by inversion. Ethanol was added to each well to solubilise biofilms after which samples were read on a spectrophotometer at Abs595 nm.

[6] = system: A. fumigatus CFBRC2 biofilm; assay: A. fumigatus biofilm assay, clinical source CFBRC2; assay type: cell-based, Aspergillus fumigatus; conditions: biofilm from clinical source CFBRC2
Procedure: as §6, §7
(§8) The above experiments were carried out using biofilms grown from laboratory sources of A. fumigatus. The experiments were repeated to test some compounds against biofilms grown from three different clinical sources of A. fumigatus (CFBRC1, CFBRC2 and CFBRC3. The results are shown in table 8: […]

[7] = system: A. fumigatus CFBRC3 biofilm; assay: A. fumigatus biofilm assay, clinical source CFBRC3; assay type: cell-based, Aspergillus fumigatus; conditions: biofilm from clinical source CFBRC3
Procedure: as §6, §7, §8

[8] = system: A. fumigatus CFBRC1 biofilm; assay: A. fumigatus biofilm assay, clinical source CFBRC1; assay type: cell-based, Aspergillus fumigatus; conditions: biofilm from clinical source CFBRC1
Procedure: as §6, §7, §8

Compound | % Cytotoxicity, Mean (LDH release) [1] [%] | Phenazine, Mean [2] [µg/mL] | cytotoxicity towards mammalian cells (in words) (mammalian cells) | effect on virulence of Pseudomonus aeruginosa (in words) (Pseudomonus aeruginosa) | Miller Units, Mean [3] [Miller Units] | Absorbance at 492 nm, Mean (XTT) [4] | effectiveness against fungal biofilms formed by Candida albicans (in words) ([4]; summary statement) | Relative absorbance at 595 nm compared to methanol control, Mean [5] | effectiveness against fungal biofilms formed by Aspergillus fumigatus (in words) [5] | Relative absorbance compared to MeOH (=1), Mean [6] | Relative absorbance compared to MeOH (=1), Mean [7] | Relative absorbance compared to MeOH (=1), Mean [8] | Normalised Phenazine, Mean [2] | Normalised Miller Units, Mean [3]
CCCCCCCn1c(=O)cc(O)c2ccccc21 [Compound C6] | 19.70 | 0.011 | reduced cytotoxicity | do not increase the virulence | 16678 | 0.336 | effective |  |  |  |  |  |  | 
CCCCCCCCCc1cc(=O)c2cc(OC)ccc2[nH]1 [Compound C8] |  | 0.205 | reduced cytotoxicity | do not increase the virulence | 11753 | 0.457 |  | 0.47 | effective |  |  |  |  | 
CCCCCCCc1cc(=O)c2ccc(OC)cc2[nH]1 [Compound C9] |  |  | reduced cytotoxicity | do not increase the virulence |  |  |  | 0.18 | effective | 0.484 | 0.439 | 0.593 |  | 
CCCCCCCc1cc(=O)c2cc(OC)ccc2[nH]1 [Compound C11] |  | 0.432 | reduced cytotoxicity | do not increase the virulence | 12254 | 0.242 |  |  |  |  |  |  |  | 
CCCCCCCc1cc(=O)c2cc(C(=O)OCC)ccc2[nH]1 [Compound C13] |  |  | reduced cytotoxicity | do not increase the virulence |  |  |  | 0.38 | effective | 0.620 | 0.609 | 0.507 | 0.747 ratio to methanol control | 0.3715
CCCCCCCc1cc(=O)c2cc(F)ccc2[nH]1 [Compound C14] |  |  | reduced cytotoxicity |  |  |  |  | 0.42 |  | 0.823 | 0.501 | 0.550 |  | 
CCCCCCCc1cc(=O)c2c(C)cc(C)cc2[nH]1 [Compound C15] |  |  | reduced cytotoxicity | do not increase the virulence |  |  |  | 0.25 | effective | 0.443 | 0.413 | 0.518 | 0.4984 ratio to methanol control | 0.4671
